Consider seven compounds from patent publication US20050048579A1, “Tertiary structures of ICAM-1/LFA-1 modulators” (priority 2003, published 2005).

The target of data set [1] is T1, LFA-1 binding to ICAM-1 (JY cells) (Homo sapiens, UniProt P05362).
T1 construct: endogenous in cells; host or cells: JY cells
Description: LFA-1:ICAM-1 dependent JY cell aggregation assay (2 hours). Format: cell-based. As for the experimental part:
(§1) Cysteine-constrained peptides, synthesized by Biopeptide (San Diego, Calif., USA), were isolated using high-performance liquid chromatography, and their correct mass was confirmed by mass spectrometry. The peptides were dissolved in 5% dimethylsulfoxide in phosphate-buffered saline (PBS) at concentrations of 10 mm and stored at −80° C. until use. The mAb directed against LFA-1 (TS1/18) was purified from a hybridoma line ([…], Manassas, Va.) as described previously (Oj, V. T. & Herzenberg, T. (1980) Immunoglobulin-producing hybrid celllines. In Selected Methods in Cellular Immunology (Mishell, B. B. & Shiigi, S. M.,eds), H. H. Freeman, New York; Larson, R. S., Brown, D. C. & Sklar, L. A.(1997) Retinoic acid induces aggregation of the acute promyelocytic leukemia cell lineNB-4 by utilization of LFA-1 and ICAM-2.Blood 90, 2747-2756; Rothlein, R. & Springer, T. A. (1986) The requirement for lymphocyte function associated antigen 1 in homotypic leukocyte adhesion stimulated by phorbol ester. J. Exp.Med. 163, 1132-1149).
(§2) JY cells were maintained in RPMI-1640 medium supplemented with 10% fetal bovine serum at 37° C. in an atmosphere containing 5% CO2 in air. The aggregation of JY cells, which is dependent on LFA-1 binding to ICAM-1, was determined as previously reported (Shannon, J. P., Silva, M. V., Brown, D. C. & Larson, R. S. (2001) Novel cyclic peptide inhibits intercellular adhesion molecule-1-mediated cell aggregation. J. Pept. Res. 58, 140-150; Larson, R. S., Brown, D. C. & Sklar, L. A.(1997) Retinoic acid induces aggregation of the acute promyelocytic leukemia cell lineNB-4 by utilization of LFA-1 and ICAM-2.Blood 90, 2747-2756; Rothlein, R. & Springer, T. A. (1986) The requirement for lymphocyte function associated antigen 1 in homotypic leukocyte adhesion stimulated by phorbol ester. J. Exp.Med. 163, 1132-1149). Briefly, JY cells were washed twice with serum-free media and resuspended at a concentration of 4×10^5 cells/mL. Cells were then preincubated with various concentrations of peptides or mAb for 15 minutes at room temperature. A 50 μL aliquot of cells was seeded in each well of a 96-well flat-bottomed microtiterplate followed by the addition of either peptide or mAb to a final volume of 100 μL. Cells were allowed to aggregate at 37° C. in humidified air containing 5% CO2. Within each well, the number of aggregates and the total number of free (single) cells were counted by inverted phase microscopy. Percent aggregation, P, was then determined as follows: P=100(1−Ff/Fi), where Ff (Fi) is the final (initial) number of free cells. Percent aggregation was then used to calculate percent inhibition, I, as follows: […], where Pi (Pc) is the percent aggregation with modulatory peptide (control). The constants for 50% inhibition (IC50) were derived from a linear fit to the percent inhibition at four concentrations (50 μm, 100 μm, 500 μm, and 1 mm) of inhibitory peptide. Each experiment was performed at least three times, with each condition performed in duplicate. The data are reported as the mean values and the SDs of each IC50.

The target of data set [2] is ICAM-1/LFA-1 dependent cell aggregation (Homo sapiens, UniProt P05362). Particulars: literature reports; cited from earlier work.
Sequence of ICAM-1/LFA-1 dependent cell aggregation (P05362 28-532): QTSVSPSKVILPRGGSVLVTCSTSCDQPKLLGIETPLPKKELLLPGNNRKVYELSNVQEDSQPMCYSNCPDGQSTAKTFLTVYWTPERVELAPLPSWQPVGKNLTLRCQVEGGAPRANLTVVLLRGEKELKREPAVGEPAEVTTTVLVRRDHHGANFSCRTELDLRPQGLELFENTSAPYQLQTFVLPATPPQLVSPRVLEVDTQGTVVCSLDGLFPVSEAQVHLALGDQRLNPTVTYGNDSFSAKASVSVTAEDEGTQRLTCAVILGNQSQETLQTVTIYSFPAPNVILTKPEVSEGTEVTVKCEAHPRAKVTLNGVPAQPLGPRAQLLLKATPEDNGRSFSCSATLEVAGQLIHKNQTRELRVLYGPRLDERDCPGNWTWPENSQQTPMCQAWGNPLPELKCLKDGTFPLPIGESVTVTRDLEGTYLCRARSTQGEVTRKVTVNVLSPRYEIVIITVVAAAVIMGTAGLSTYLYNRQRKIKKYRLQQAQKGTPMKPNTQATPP
For data set [3], the target named is T1, LFA-1 binding to ICAM-1 (JY cells). Description: LFA-1:ICAM-1 dependent cell aggregation assay, slightly modified (360 minute incubations). Format: cell-based. As for the experimental part: as §2
The same general procedure was used as described in Example 1.
The functional activity of each IP02 derivative was measured in a slightly-modified version of the previously described cell aggregation assay (Shannon, J. P., Silva, M. V., Brown, D. C., & Larson, R. S. (2001). Novel cyclic peptide inhibits intercellular adhesion molecule-1-mediated cell aggregation. J. Pept. Res. 58, 140-150; Merchant, S. H., Gurule, D. M., Larson, R. S. (2003). Amelioration of ischemia-reperfusion injury with cyclic peptide blockade of ICAM-1. Am. J. Physiol. Heart Circ. 284,H1260-1268; Larson, R. S., Brown, D. C., and Sklar, L. A. (1997). Retinoic acid induces aggregation of the acute promyelocytic leukemia cell line NB-4 by utilization of LFA-1 and ICAM-2. Blood 90, 2747-2756; Rothlein, R. and Springer, T. A. (1986). The requirement for lymphocyte function-associated antigen 1 in homotypic leukocyte adhesion stimulated by phorbol ester. J. Exp. Med. 163, 1132-1149). Longer incubations (360 minutes) were used here instead of the earlier 120 minute incubations in order to increase the observed differences among peptide antagonists. Of all the amino acid substitutions, replacement of R6 with K, to produce IP02-K6, improved the IC50 the most. […] Alternatively, replacement of L2 or L3 with V (IP02-V2 and IP02-V3) or A8 with L (IP02-L8) abrogated activity, with IC50s exceeding 1,000 μM.

For data set [4], the system named is ischemia-reperfusion injury. Particulars: in vivo; cited from earlier work.
A short description of data set [5]: Solubility of the peptide. Format: physicochemical. The settings on record: NS, not soluble; precluded testing; listed as R4 to A mutation. As for the experimental part: as §1

Bridge positions count the residues as written; N and C are the ends. Peptide text beside a SMILES is read from it.

T1 sequence (P05362 28-532): as above

For orientation: IC50 means the concentration needed to halve the response being measured. Compound `CC[C@H](C)[C@@H]1NC(=O)[C@H](CO)NC(=O)[C@H](CCCNC(=N)N)NC(=O)[C@H](C)NC(=O)[C@H](CCCNC(=N)N)NC(=O)[C@H](CC(C)C)NC(=O)[C@H](CC(C)C)NC(=O)[C@@H](N)CSSC[C@@H](C(=O)O)NC1=O` [IP01-A5, CLLRARSIC] (H-CLLRARSIC-OH; disulfide 1-9; N-terminus and C-terminus assumed) displayed an IC50 in data set [1] above 1000 µM.
Take `CC[C@H](C)[C@@H]1NC(=O)[C@H](CO)NC(=O)[C@H](CCCNC(=N)N)NC(=O)[C@H](CCSC)NC(=O)[C@H](CCCNC(=N)N)NC(=O)[C@H](CC(C)C)NC(=O)[C@H](CC(C)C)NC(=O)[C@@H](N)CSSC[C@@H](C(=O)O)NC1=O` [IP01, CLLRMRSIC] (H-CLLRMRSIC-OH; disulfide 1-9; N-terminus and C-terminus assumed): the “inhibition of ICAM-1/LFA-1 dependent cell aggregation (in words)” value in data set [2] is reported as “potent in vitro inhibitor”.
In the case of `CSCC[C@@H]1NC(=O)[C@H](CCCNC(=N)N)NC(=O)[C@H](CC(C)C)NC(=O)[C@H](CC(C)C)NC(=O)[C@@H](N)CSSC[C@@H](C(=O)O)NC(=O)[C@H](C)NC(=O)[C@H](CO)NC(=O)[C@H](CCCNC(=N)N)NC1=O` [IP01-A8, CLLRMRSAC] (H-CLLRMRSAC-OH; disulfide 1-9; N-terminus and C-terminus assumed), the “bioactivity after alanine substitution (in words)” value in data set [1] (listed as I8 to alanine substitution) is “retained significant bioactivity”. Further, the “inhibition of ICAM-1/LFA-1 dependent cell aggregation (in words)” value in data set [2] was “enhanced inhibition”.
`CSCC[C@@H]1NC(=O)[C@H](CCCNC(=N)N)NC(=O)[C@H](CC(C)C)NC(=O)[C@H](CC(C)C)NC(=O)[C@@H](N)CSSC[C@@H](C(=O)O)NC(=O)[C@H](C)NC(=O)[C@H](CO)NC(=O)[C@H](CCCCN)NC1=O` [IP02-K6, CLLRMKSAC] (H-CLLRMKSAC-OH; disulfide 1-9; N-terminus and C-terminus assumed): the “IC50 fold smaller than lead peptide IP01” value in data set [3] was around 6 fold. Besides, the “inhibition of ischemia-reperfusion injury (in words)” value in data set [4] is reported as “potent in vivo inhibitor”. In addition, in data set [2], the “inhibition of ICAM-1/LFA-1 dependent cell aggregation (in words)” value was “more potent inhibitor of ICAM-1 than IP01”.
With `CC[C@H](C)[C@@H]1NC(=O)[C@H](CO)NC(=O)[C@H](CCCNC(=N)N)NC(=O)[C@H](CCSC)NC(=O)[C@H](CCCNC(=N)N)NC(=O)[C@H](C)NC(=O)[C@H](CC(C)C)NC(=O)[C@@H](N)CSSC[C@@H](C(=O)O)NC1=O` [IP01-A3, CLARMRSIC] (H-CLARMRSIC-OH; disulfide 1-9; N-terminus and C-terminus assumed), in data set [1], the IC50 was above 1000 µM.
The compound `CC[C@H](C)[C@@H]1NC(=O)[C@H](CO)NC(=O)[C@H](C)NC(=O)[C@H](CCSC)NC(=O)[C@H](CCCNC(=N)N)NC(=O)[C@H](CC(C)C)NC(=O)[C@H](CC(C)C)NC(=O)[C@@H](N)CSSC[C@@H](C(=O)O)NC1=O` [IP01-A6, CLLRMASIC] (H-CLLRMASIC-OH; disulfide 1-9; N-terminus and C-terminus assumed) showed an IC50 in data set [1] above 1000 µM.
Take `CC[C@H](C)[C@@H]1NC(=O)[C@H](CO)NC(=O)[C@H](CCCNC(=N)N)NC(=O)[C@H](CCSC)NC(=O)[C@H](C)NC(=O)[C@H](CC(C)C)NC(=O)[C@H](CC(C)C)NC(=O)[C@@H](N)CSSC[C@@H](C(=O)O)NC1=O` [IP01-A4, CLLAMRSIC] (H-CLLAMRSIC-OH; disulfide 1-9; N-terminus and C-terminus assumed): the “solubility of the peptide” value in data set [5] is “insoluble”.
